Experimental data from the NIST ThermoML archive (doi:10.1021/je900366m).
Numbers after ± are expanded uncertainties.

Key:
[1] = 298.15 K; 101.33 kPa; Liquid; Pycnometric method
[2] = refractive index (Na D-line) (dimensionless); details: 293.1 K; 101.33 kPa; Liquid; Standard Abbe refractometry

SMILES	mass density [1]	refractive index [2]
C1COCCO1 [1,4-dioxane]	1025.9 ± 0.4 kg/m3	1.422 ± 0.0004
CC=C(C)CCCC(C)(C)O [6-octen-2-ol, 2,6-dimethyl-]	831.8 ± 0.3 kg/m3	1.4408 ± 0.0004
